In this assay the target is T1, human GLP-1 receptor (GLP-1R) (Homo sapiens, UniProt P43220).
T1 construct: expressed in transfected cells; host or cells: HEK293 cells or CHO cells
The assay can be described thus: cAMP assay, human GLP-1R cells. Format: cell-based. The note with it: cAMP activity. The protocol: Sample dilutions are made in duplicate.
A frozen cryo-vial of cells expressing the receptor of interest is thawed rapidly in a water-bath, transferred to pre-warmed assay buffer and spun at 240×g for 5 minutes. Cells are re-suspended in assay buffer at a batch-dependent optimized concentration (e.g. hGCGR cells at 2×10^5 cells/ml, hGLP-1R and hGIPR cells at 1×10^5 cells/ml).
To this, 5 μL cell suspension is added and the plates incubated at room temperature for 30 minutes.
cAMP levels are measured using a commercially available cAMP dynamic 2 HTRF kit (Cisbio, Cat #62AM4PEJ), following the two step protocol as per manufacturer's recommendations. In brief; anti-cAMP cryptate (donor fluorophore) and cAMP-d2 (acceptor fluorophore) are made up separately by diluting each 1/20 in conjugate & lysis buffer provided in the kit. 5 μL anti-cAMP cryptate is added to wells of the assay plate, and 5 μL cAMP-d2 is added to wells except non-specific binding (NSB) wells, to which conjugate and lysis buffer are added. […] EC50 values of the synthetic peptides determined in cAMP assays are then determined.
Data is transformed to % Delta F as described in the manufacturer's guidelines and analyzed by 4-parameter logistic fit to determine EC50 values. […] To compare the balance of activities at the GLP-1R and GCGR between different peptides and across different conditions, these can be correlated, where the EC50's are related to those of comparator peptides.
In general terms: Changes in cAMP serve as a functional read-out for many G protein-coupled receptors.

[1] abbreviates: mean of n1 and n2, read-out: Mean pM GLP-1R.
The mark [2] stands for this setting: second determination (n2), read-out: Primary assay EC50 GLP-1R n2.

In patent US20210221866A1, “PROTEASE-RESISTANT LIPIDATED GLP-1 ANALOGS” (MEDIMMUNE LIMITED, priority 2015, published 2021) one finds EC50 data, which are given here for eight compounds.

Molecules are shown by their SMILES. Read-outs that look alike come from different tables or passages of the source. Numbered stars: 1 amine (or outer) side, 2 acyl side, 3 side chain; on linkers, the order of the positions; unused ones are H or OH. Square brackets hold non-standard residues; d marks the D form. Side chains are listed from the residue outwards. Peptide text beside a SMILES is read from it. * marks the point of attachment. C18 diacid = O=C(O)CCCCCCCCCCCCCCCCC(=O)*; γGlu = O=C(O)[C@H](CCC(=O)[*:2])N[*:1]; Palmitoyl = CCCCCCCCCCCCCCCC(=O)*; αMeF = C[C@](N)(Cc1ccccc1)C(=O)O; αMeK = C[C@](N)(CCCCN)C(=O)O; αMeS = C[C@](N)(CO)C(=O)O; AEEA = NCCOCCOCC(=O)O; Aib = CC(C)(N)C(=O)O

T1 sequence (P43220 24-463): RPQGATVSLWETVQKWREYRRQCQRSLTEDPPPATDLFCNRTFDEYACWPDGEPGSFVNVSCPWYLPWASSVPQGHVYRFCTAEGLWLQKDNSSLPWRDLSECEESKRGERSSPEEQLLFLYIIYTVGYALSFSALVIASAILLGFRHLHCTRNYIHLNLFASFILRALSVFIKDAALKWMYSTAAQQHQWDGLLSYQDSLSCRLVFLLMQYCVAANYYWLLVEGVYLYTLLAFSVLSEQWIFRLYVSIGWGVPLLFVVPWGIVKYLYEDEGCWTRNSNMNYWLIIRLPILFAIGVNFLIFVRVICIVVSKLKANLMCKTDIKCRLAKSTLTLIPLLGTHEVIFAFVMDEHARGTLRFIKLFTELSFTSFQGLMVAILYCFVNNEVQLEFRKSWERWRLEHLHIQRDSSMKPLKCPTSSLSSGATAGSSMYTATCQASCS

Regarding `CCCCCCCCCCCCCCCC(=O)N[C@@H](CCC(=O)NCCCC[C@H](NC(=O)[C@](C)(Cc1ccccc1)NC(=O)[C@H](CCC(=O)O)NC(=O)[C@](C)(CCCCN)NC(=O)[C@H](C)NC(=O)[C@H](C)NC(=O)[C@H](CCC(=O)O)NC(=O)CNC(=O)[C@H](CCC(=O)O)NC(=O)[C@H](CC(C)C)NC(=O)[C@](C)(Cc1ccccc1)NC(=O)[C@H](CO)NC(=O)[C@](C)(CO)NC(=O)[C@@H](NC(=O)[C@H](CC(=O)O)NC(=O)[C@H](CO)NC(=O)[C@@H](NC(=O)[C@](C)(Cc1ccccc1)NC(=O)[C@H](CO)NC(=O)CNC(=O)[C@H](CCC(=O)O)NC(=O)C(C)(C)NC(=O)[C@@H](N)Cc1c[nH]cn1)[C@@H](C)O)C(C)C)C(=O)N[C@@H](C)C(=O)N[C@@](C)(Cc1ccccc1)C(=O)N[C@H](C(=O)N[C@H](C(=O)N[C@@](C)(CCCCN)C(=O)NCC(=O)NCC(N)=O)C(C)C)C(C)C)C(=O)O` [compound 77] (H-H[Aib]EGS[αMeF]TSDV[αMeS]S[αMeF]LEGEAA[αMeK]E[αMeF]K([γGlu-Palmitoyl])A[αMeF]VV[αMeK]GG-NH2; N-terminus assumed), the EC50 under setting [1] is 1860 pM.
As to `CCCCCCCCCCCCCCCC(=O)N[C@@H](CCC(=O)NCCCC[C@H](NC(=O)[C@H](CCC(=O)O)NC(=O)[C@H](CC(C)C)NC(=O)[C@](C)(Cc1ccccc1)NC(=O)[C@H](CO)NC(=O)[C@](C)(CO)NC(=O)[C@@H](NC(=O)[C@H](CC(=O)O)NC(=O)[C@H](CO)NC(=O)[C@@H](NC(=O)[C@](C)(Cc1ccccc1)NC(=O)[C@H](CO)NC(=O)CNC(=O)[C@H](CCC(=O)O)NC(=O)C(C)(C)NC(=O)[C@@H](N)Cc1c[nH]cn1)[C@@H](C)O)C(C)C)C(=O)N[C@@H](CCC(=O)O)C(=O)N[C@@H](C)C(=O)N[C@@H](C)C(=O)N[C@@](C)(CCCCN)C(=O)N[C@@H](CCC(=O)O)C(=O)N[C@@](C)(Cc1ccccc1)C(=O)N[C@H](C(=O)N[C@@H](C)C(=O)N[C@@](C)(Cc1ccccc1)C(=O)N[C@H](C(=O)N[C@H](C(=O)N[C@@](C)(CCCCN)C(=O)NCC(=O)NCC(N)=O)C(C)C)C(C)C)[C@@H](C)CC)C(=O)O` [compound 84] (H-H[Aib]EGS[αMeF]TSDV[αMeS]S[αMeF]LEK([γGlu-Palmitoyl])EAA[αMeK]E[αMeF]IA[αMeF]VV[αMeK]GG-NH2; N-terminus assumed), the EC50 under setting [1] worked out at 8 pM and the EC50 under setting [2] came to 8.1 pM.
Consider `CC[C@H](C)[C@H](NC(=O)[C@](C)(Cc1ccccc1)NC(=O)[C@H](CCC(=O)O)NC(=O)[C@](C)(CCCCN)NC(=O)[C@H](C)NC(=O)[C@H](C)NC(=O)[C@H](CCC(=O)O)NC(=O)CNC(=O)[C@H](CCC(=O)O)NC(=O)[C@H](CC(C)C)NC(=O)[C@](C)(Cc1ccccc1)NC(=O)[C@H](CO)NC(=O)[C@](C)(CO)NC(=O)[C@@H](NC(=O)[C@H](CC(=O)O)NC(=O)[C@H](CO)NC(=O)[C@@H](NC(=O)[C@](C)(Cc1ccccc1)NC(=O)[C@H](CO)NC(=O)CNC(=O)[C@H](CCC(=O)O)NC(=O)C(C)(C)NC(=O)[C@@H](N)Cc1c[nH]cn1)[C@@H](C)O)C(C)C)C(=O)N[C@@H](C)C(=O)N[C@@](C)(Cc1ccccc1)C(=O)N[C@H](C(=O)N[C@H](C(=O)N[C@@](C)(CCCCN)C(=O)N[C@@H](CCCCNC(=O)COCCOCCNC(=O)COCCOCCNC(=O)CC[C@H](NC(=O)CCCCCCCCCCCCCCCCC(=O)O)C(=O)O)C(=O)NCC(N)=O)C(C)C)C(C)C` [compound 100] (H-H[Aib]EGS[αMeF]TSDV[αMeS]S[αMeF]LEGEAA[αMeK]E[αMeF]IA[αMeF]VV[αMeK]K([AEEA-AEEA-γGlu-C18 diacid])G-NH2; N-terminus assumed), for which the EC50 under setting [1] was determined as 15 pM.
As for `CC[C@H](C)[C@H](NC(=O)[C@](C)(Cc1ccccc1)NC(=O)[C@H](CCC(=O)O)NC(=O)[C@](C)(CCCCN)NC(=O)[C@H](C)NC(=O)[C@H](C)NC(=O)[C@H](CCC(=O)O)NC(=O)CNC(=O)[C@H](CCC(=O)O)NC(=O)[C@H](CC(C)C)NC(=O)[C@](C)(Cc1ccccc1)NC(=O)[C@H](CO)NC(=O)[C@](C)(CO)NC(=O)[C@@H](NC(=O)[C@H](CC(=O)O)NC(=O)[C@H](CO)NC(=O)[C@@H](NC(=O)[C@](C)(Cc1ccccc1)NC(=O)[C@H](CO)NC(=O)CNC(=O)[C@H](CCC(=O)O)NC(=O)C(C)(C)NC(=O)[C@@H](N)Cc1c[nH]cn1)[C@@H](C)O)C(C)C)C(=O)N[C@@H](C)C(=O)N[C@@H](CCCCNC(=O)COCCOCCNC(=O)COCCOCCNC(=O)CC[C@H](NC(=O)CCCCCCCCCCCCCCCCC(=O)O)C(=O)O)C(=O)N[C@H](C(=O)N[C@H](C(=O)N[C@@](C)(CCCCN)C(=O)NCC(=O)NCC(N)=O)C(C)C)C(C)C` [compound 104], the EC50 under setting [1] is 5 pM.
Turning to `CC[C@H](C)[C@H](NC(=O)[C@](C)(Cc1ccccc1)NC(=O)[C@H](CCC(=O)O)NC(=O)[C@H](CCCCNC(=O)COCCOCCNC(=O)COCCOCCNC(=O)CC[C@H](NC(=O)CCCCCCCCCCCCCCC(=O)O)C(=O)O)NC(=O)[C@H](C)NC(=O)[C@H](C)NC(=O)[C@H](CCC(=O)O)NC(=O)CNC(=O)[C@H](CCC(=O)O)NC(=O)[C@H](CC(C)C)NC(=O)[C@](C)(Cc1ccccc1)NC(=O)[C@H](CO)NC(=O)[C@](C)(CO)NC(=O)[C@@H](NC(=O)[C@H](CC(=O)O)NC(=O)[C@H](CO)NC(=O)[C@@H](NC(=O)[C@](C)(Cc1ccccc1)NC(=O)[C@H](CO)NC(=O)CNC(=O)[C@H](CCC(=O)O)NC(=O)C(C)(C)NC(=O)[C@@H](N)Cc1c[nH]cn1)[C@@H](C)O)C(C)C)C(=O)N[C@@H](C)C(=O)N[C@@](C)(Cc1ccccc1)C(=O)N[C@H](C(=O)N[C@H](C(=O)N[C@@](C)(CCCCN)C(=O)NCC(=O)NCC(N)=O)C(C)C)C(C)C` [compound 109], the EC50 is, setting by setting: under setting [1], 34 pM; under setting [2], 34.6 pM.
On to `CC[C@H](C)[C@H](NC(=O)[C@](C)(Cc1ccccc1)NC(=O)[C@H](CCC(=O)O)NC(=O)[C@](C)(CCCCN)NC(=O)[C@H](CCCCNC(=O)COCCOCCNC(=O)COCCOCCNC(=O)CC[C@H](NC(=O)CCCCCCCCCCCCCCCCC(=O)O)C(=O)O)NC(=O)[C@H](C)NC(=O)[C@H](CCC(=O)O)NC(=O)CNC(=O)[C@H](CCC(=O)O)NC(=O)[C@H](CC(C)C)NC(=O)[C@](C)(Cc1ccccc1)NC(=O)[C@H](CO)NC(=O)[C@](C)(CO)NC(=O)[C@@H](NC(=O)[C@H](CC(=O)O)NC(=O)[C@H](CO)NC(=O)[C@@H](NC(=O)[C@](C)(Cc1ccccc1)NC(=O)[C@H](CO)NC(=O)CNC(=O)[C@H](CCC(=O)O)NC(=O)C(C)(C)NC(=O)[C@@H](N)Cc1c[nH]cn1)[C@@H](C)O)C(C)C)C(=O)N[C@@H](C)C(=O)N[C@@](C)(Cc1ccccc1)C(=O)N[C@H](C(=O)N[C@H](C(=O)N[C@@](C)(CCCCN)C(=O)NCC(=O)NCC(N)=O)C(C)C)C(C)C` [compound 110] (H-H[Aib]EGS[αMeF]TSDV[αMeS]S[αMeF]LEGEAK([AEEA-AEEA-γGlu-C18 diacid])[αMeK]E[αMeF]IA[αMeF]VV[αMeK]GG-NH2; N-terminus assumed), for which the EC50 under setting [1] was determined as 62 pM.
`CC[C@H](C)[C@H](NC(=O)[C@](C)(Cc1ccccc1)NC(=O)[C@H](CCC(=O)O)NC(=O)[C@](C)(CCCCN)NC(=O)[C@H](C)NC(=O)[C@H](CCCCNC(=O)COCCOCCNC(=O)COCCOCCNC(=O)CC[C@H](NC(=O)CCCCCCCCCCCCCCCCC(=O)O)C(=O)O)NC(=O)[C@H](CCC(=O)O)NC(=O)CNC(=O)[C@H](CCC(=O)O)NC(=O)[C@H](CC(C)C)NC(=O)[C@](C)(Cc1ccccc1)NC(=O)[C@H](CO)NC(=O)[C@](C)(CO)NC(=O)[C@@H](NC(=O)[C@H](CC(=O)O)NC(=O)[C@H](CO)NC(=O)[C@@H](NC(=O)[C@](C)(Cc1ccccc1)NC(=O)[C@H](CO)NC(=O)CNC(=O)[C@H](CCC(=O)O)NC(=O)C(C)(C)NC(=O)[C@@H](N)Cc1c[nH]cn1)[C@@H](C)O)C(C)C)C(=O)N[C@@H](C)C(=O)N[C@@](C)(Cc1ccccc1)C(=O)N[C@H](C(=O)N[C@H](C(=O)N[C@@](C)(CCCCN)C(=O)NCC(=O)NCC(N)=O)C(C)C)C(C)C` [compound 111] (H-H[Aib]EGS[αMeF]TSDV[αMeS]S[αMeF]LEGEK([AEEA-AEEA-γGlu-C18 diacid])A[αMeK]E[αMeF]IA[αMeF]VV[αMeK]GG-NH2; N-terminus assumed): the EC50 under setting [1] is 17 pM.
`CC[C@H](C)[C@H](NC(=O)[C@](C)(Cc1ccccc1)NC(=O)[C@H](CCC(=O)O)NC(=O)[C@](C)(CCCCN)NC(=O)[C@H](C)NC(=O)[C@H](C)NC(=O)[C@H](CCCCNC(=O)COCCOCCNC(=O)COCCOCCNC(=O)CC[C@H](NC(=O)CCCCCCCCCCCCCCCCC(=O)O)C(=O)O)NC(=O)CNC(=O)[C@H](CCC(=O)O)NC(=O)[C@H](CC(C)C)NC(=O)[C@](C)(Cc1ccccc1)NC(=O)[C@H](CO)NC(=O)[C@](C)(CO)NC(=O)[C@@H](NC(=O)[C@H](CC(=O)O)NC(=O)[C@H](CO)NC(=O)[C@@H](NC(=O)[C@](C)(Cc1ccccc1)NC(=O)[C@H](CO)NC(=O)CNC(=O)[C@H](CCC(=O)O)NC(=O)C(C)(C)NC(=O)[C@@H](N)Cc1c[nH]cn1)[C@@H](C)O)C(C)C)C(=O)N[C@@H](C)C(=O)N[C@@](C)(Cc1ccccc1)C(=O)N[C@H](C(=O)N[C@H](C(=O)N[C@@](C)(CCCCN)C(=O)NCC(=O)NCC(N)=O)C(C)C)C(C)C` [compound 112] (H-H[Aib]EGS[αMeF]TSDV[αMeS]S[αMeF]LEGK([AEEA-AEEA-γGlu-C18 diacid])AA[αMeK]E[αMeF]IA[αMeF]VV[αMeK]GG-NH2; N-terminus assumed): the EC50 under setting [1] amounted to 6 pM.
